Measurements as given in patent publication US5726156A, “Cytokine regulatory agents and methods of use in pathologies and conditions associated with altered cytokine levels” (Trega Biosciences, Inc., priority 1995, dated 1998).

Key:
Type in all cases: in vivo, rats
IL-1-induced fever = assay: IL-1β-induced temperature increase (fever); details: 500 μg/kg IP
Method: Male Wistar rats (45-75 days old) were placed in a temperature controlled room held at 26° C., which is thermoneutral for the normal body temperature of rats, and were maintained in the room with free access to food and water for 24 hr prior to testing. On the morning of the study, rats were marked for identification and weighed. The temperature of each rat was determined by placing the animal in a regulatory cage designed to minimize stress and inserting a temperature probe (YSI probe #402) 3-5 cm into the animal's rectum. The temperature was recorded 15 sec after the reading stabilized. Measurements were repeated 1 hr later to establish a baseline temperature for each rat.
After the baseline temperatures were established, rats were injected IP with saline, IL-1β or LPS endotoxin. Rats then were injected IP with either saline (control) or various concentrations of EX-2, EX-3, or EX-4 (treated). The temperature of the rats was measured every hr for 6 hr and the inhibition by EX-2, EX-3, or EX-4 of the rise in temperature due to IL-1β or LPS was determined.
In addition, treatment with 50 or 150 μg/kg EX-2 inhibited LPS-induced fever by 45% or 52%, respectively, when measured 6 hr following LPS injection. Furthermore, treatment with 150 μg/kg EX-3 or EX-4 inhibited LPS-induced fever by 57% and 52%, respectively (Table II).

[1] = system: kidney (cisplatin nephrotoxicity); assay: Cisplatin (CDDP) nephrotoxicity, renal function
Method: Male Sprague-Dawley were used to determine the effect of EX-2 on renal function after cisplatin (CDDP) administration. All rats were administered CDDP (4 mg/kg IP) and divided in 3 treatment groups (n=6/group). The groups were as follows: (1) Administration with vehicle and sterile PBS 3×/day; (2) Administration of EX-2 at a dose of 5 μg/kg, 3×/day; and (3) same as group 2 except the dose of EX-2 was 50 μg/kg, 3×/day. An infusion of ^3 H-inulin (0.6 μCi/ml in PBS) (2 ml/hr) was initiated at the end of the surgical preparation period. The continuous infusion was started 60 min prior to the renal function measurements and maintained to the end of the study. Glomerular filtration was assessed by inulin clearance techniques in two 30 min periods and renal blood flow (RBF) and renal plasma flow (RPF) were measured by inulin extraction techniques (arterial vs. renal vein inulin concentration) from left kidney renal vein blood sampled at the end of the second GFR measurement period. Urinary output was also monitored to determine both urine flow and fractional excretion of water. Urinary electrolyte (Na^+ and K^+) concentrations were analyzed by flame photometry (Model 51 Ca, Bacharch, inc.; Pittsburgh, Pa.) and urinary protein concentrations were determined. At the end of the measurement periods, the kidneys were removed for histological analysis.

[2] = system: LPS-induced PMN infiltration in lungs; assay: Adult respiratory distress syndrome: LPS-induced PMN count in broncho-alveolar lavage; details: 100 μg/kg IP; broncho-alveolar lavage 6 hr after intratracheal LPS
Method: These experiments were performed using a modification of the methods described by Ulich et al., Am. J. Pathol. 141:61-68 (1992) and by Wheelden et al., Lab. Animals 26:29-37 (1992), each of which is incorporated herein by reference. Male Harlan Sprague-Dawley rats were anesthetized using a mixture of 70 mg/kg ketamine and 6 mg/kg rompun injected IP. A 2-3 cm incision was made in the neck of each anesthetized rat and its trachea was exposed by blunt dissection of the surrounding soft tissue. The rats were suspended on a near vertical slab and intratracheal injections were performed by inserting into the exposed trachea, at a point 1 cm posterior to the larynx, a 25G×1/2 inch needle attached to a 1 cc syringe.
Each rat received 0.5 ml/kg of saline or 0.5 ml/kg of 10 mg/ml (5 mg/kg) LPS endotoxin via slow intratracheal administration. Immediately following administration of the LPS endotoxin, rats were injected IP with 1 ml/kg of either saline (control) or saline containing various concentrations of EX-2 (treated). The rats were maintained in the elevated position for 1-2 min to facilitate distribution of the LPS and saline into the lung. The incisions were closed and the rats were allowed to recover. […]
The total polymorphonuclear leukocytes (PMN; neutrophits) in the broncho-alveolar lavage fluid were counted in the EX-2-treated rats and compared with the number in the control rats.

[3] = CDDP 4 mg/kg IP + 5 μg/kg EX-2 3×/day
[4] = CDDP 4 mg/kg IP + 50 μg/kg EX-2 3×/day

What does the source list for “Ac-Nle-Gln-His-(D)Phe-Arg-(D)Trp-Gly-NH2 [EX-2]”?
Reduction in IL-1-induced Fever (IL-1-induced fever): 52%; GFR [1, 3]: 0.8 ± 0.2; RBF [1, 3]: 12.1 ± 2.0; RPF [1, 3]: 6.5 ± 1.0 ml/mm; GFR [1, 4]: 1.6 ± 0.4; RBF [1, 4]: 16.8 ± 2.2; RPF [1, 4]: 8.8 ± 1.1 ml/mm; Reduction in LPS-induced PMN Count [2]: 58%
